Broadly, the Km is the substrate concentration at which the rate is half of its maximum.

The structures appear in SMILES notation.

This is an account of results in article PMC8376734, “RNAi-mediated gene knockdown of progesterone 5β-reductases in Digitalis lanata reduces 5β-cardenolide content” (Plant Cell Reports, 2021).

The target in one assay is T1, rDlP5βR1 (Digitalis lanata, UniProt Q6PQJ9).
T1 construct: recombinant in E. coli, pQE30 vector (Herl et al. 2006), His-tagged, IMAC purified
Nature of the assay: NADPH consumption at […] nm, spectrophotometric. It is filed as biochemical. The settings on record: 0.2 mM NADPH, 40 °C, substrate 0.01-1.6 mM.

The test system of a further assay is T2, rDlP5βR2.
T2 construct: gene P5βR2; recombinant in E. coli SoluBL21, pDEST17 vector, His-tagged, IMAC purified; cloned with primers deduced from D. purpurea P5βR2
As to the kind of experiment: NADPH consumption at […] nm, spectrophotometric. It is filed as biochemical, Digitalis lanata. The settings on record: 0.2 mM NADPH, 40 °C, substrate 0.01-1.6 mM.

T1 sequence (Q6PQJ9 whole entry): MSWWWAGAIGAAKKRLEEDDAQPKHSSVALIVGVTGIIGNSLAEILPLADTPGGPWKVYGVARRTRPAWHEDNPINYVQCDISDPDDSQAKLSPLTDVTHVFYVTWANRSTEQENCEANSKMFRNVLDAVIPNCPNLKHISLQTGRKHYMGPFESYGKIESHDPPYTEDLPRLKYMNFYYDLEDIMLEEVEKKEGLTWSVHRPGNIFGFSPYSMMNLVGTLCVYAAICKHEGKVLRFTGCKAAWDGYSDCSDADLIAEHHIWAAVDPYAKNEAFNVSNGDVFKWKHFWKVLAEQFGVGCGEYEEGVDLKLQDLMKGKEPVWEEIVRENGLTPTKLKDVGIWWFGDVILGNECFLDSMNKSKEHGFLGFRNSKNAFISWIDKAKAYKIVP

As to `C=CC(C)=O` [methyl vinyl ketone], the Km on rDlP5βR1 was 270 µM; in the assay on rDlP5βR2 it was 210 µM.

For the molecule `CC(=O)[C@H]1CC[C@H]2[C@@H]3CCC4=CC(=O)CC[C@]4(C)[C@H]3CC[C@]12C` [progesterone], in the assay with rDlP5βR2, the Km turned out to be 230 µM.
